Laboratory results taken from US8952024B2, “Herbicidal pyrimidone derivatives” (E I du Pont de Nemours and Company, priority 2009, dated 2015).

How the values were obtained:
Assay type in all cases: in vivo
[1] = tested on: chickweed (Stellaria media); experiment: Test B postemergence plant response
In short: (§1)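 Visual ratings from 0 (no effect) to 100 (complete control), made against controls 13–15 days after treatment, kept in a greenhouse. Compounds were applied postemergence to potted plants at the 1- to 4-leaf stage (2–18 cm).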

[2] = tested on: canarygrass (Phalaris minor); experiment: Test B postemergence plant response
In short: as §1

[3] = tested on: winter barley (Hordeum vulgare); experiment: Test B postemergence plant response
In short: as §1

[4] = tested on: windgrass (Apera spica-venti); experiment: Test B postemergence plant response
In short: as §1

[5] = tested on: wheat (Triticum aestivum); experiment: Test A pre-/postemergence plant response
In short: (§2)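 Greenhouse trial, ~10 days. Soil (loam/sand) sprayed preemergence after seeding; emerged plants (1–2 leaf, 2–10 cm) sprayed postemergence in parallel. Response = visual injury vs untreated control, 0–100.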

[6] = tested on: large crabgrass (Digitaria sanguinalis); experiment: Test A pre-/postemergence plant response
In short: as §2

[7] = tested on: morningglory (Ipomoea spp.); experiment: Test A pre-/postemergence plant response
In short: as §2

[8] = tested on: velvetleaf (Abutilon theophrasti); experiment: Test A pre-/postemergence plant response
In short: as §2

[9] = tested on: corn (Zea mays); experiment: Test A pre-/postemergence plant response
In short: as §2

[10] = tested on: pigweed (Amaranthus retroflexus); experiment: Test A pre-/postemergence plant response
In short: as §2

[11] = tested on: giant foxtail (Setaria faberii); experiment: Test A pre-/postemergence plant response
In short: as §2

[12] = tested on: barnyardgrass (Echinochloa crus-galli); experiment: Test A pre-/postemergence plant response
In short: as §2

[13] = 31 g ai/ha, postemergence, scale 0 to 100, 0 is no effect, 100 is complete control
[14] = Postemergence, 62 g ai/ha, scale 0 (no effect) to 100 (complete control), 13 to 15 days
[15] = Postemergence, 125 g ai/ha, visual rating after 13 to 15 days, scale 0 (no effect) to 100 (complete control)
[16] = Postemergence, 250 g ai/ha, scale 0 to 100 (0 no effect, 100 complete control)
[17] = Postemergence, 125 g ai/ha, visual injury, 0 to 100 scale (0 no effect, 100 complete control), approx. ten days
[18] = Postemergence, 500 g ai/ha, 0 to 100 scale, 0 = no effect, 100 = complete control, approx. ten days
[19] = Preemergence, 125 g ai/ha, 0 to 100 scale, 0 = no effect, 100 = complete control
[20] = Preemergence, 500 g ai/ha, visual injury, 0 to 100 scale (0 no effect, 100 complete control), approx. ten days
[21] = 62 g ai/ha, postemergence, 0 is no effect, 100 is complete control, 13 to 15 days

SMILES: O=C1CCCC(O)=C1C(=O)c1cnc(-c2cccc(Cl)c2)n(-c2ccc(Cl)cc2)c1=O [Compound 64]
- Plant response rating, Chickweed [1, 13]: 98
- Plant response rating, Chickweed [1, 14]: 98
- Plant response rating, Chickweed [1, 15]: 98
- Plant response rating, Chickweed [1, 16]: 100
- Plant response rating, Canarygrass [2, 13]: 40
- Plant response rating, Canarygrass [2, 14]: 40
- Plant response rating, Canarygrass [2, 15]: 40
- Plant response rating, Canarygrass [2, 16]: 60
- Plant response rating, Barley [3, 13]: 15
- Plant response rating, Barley [3, 16]: 35
- Plant response rating, Windgrass [4, 13]: 70
- Plant response rating, Windgrass [4, 14]: 90
- Plant response rating, Windgrass [4, 15]: 95
- Plant response rating, Windgrass [4, 16]: 100
- Wheat plant response rating [5, 17]: 0
- Plant response rating, Wheat [5, 18]: 30
- Plant response rating, Wheat [5, 19]: 0
- Plant response rating, Wheat [5, 20]: 0
- Crabgrass, Large plant response rating [6, 17]: 80
- Plant response rating, Crabgrass, Large [6, 18]: 90
- Plant response rating, Crabgrass, Large [6, 19]: 80
- Plant response rating, Crabgrass, Large [6, 20]: 90
- Morningglory plant response rating [7, 17]: 90
- Plant response rating, Morningglory [7, 18]: 100
- Plant response rating, Morningglory [7, 19]: 0
- Plant response rating, Morningglory [7, 20]: 0
- Velvetleaf plant response rating [8, 17]: 100
- Plant response rating, Velvetleaf [8, 18]: 100
- Plant response rating, Velvetleaf [8, 19]: 60
- Plant response rating, Velvetleaf [8, 20]: 90
- Corn plant response rating [9, 17]: 0
- Plant response rating, Corn [9, 18]: 60
- Plant response rating, Corn [9, 19]: 0
- Plant response rating, Corn [9, 20]: 0
- Pigweed plant response rating [10, 17]: 90
- Plant response rating, Pigweed [10, 18]: 100
- Plant response rating, Pigweed [10, 19]: 80
- Plant response rating, Pigweed [10, 20]: 100
- Foxtail, Giant plant response rating [11, 17]: 60
- Plant response rating, Foxtail, Giant [11, 18]: 80
- Plant response rating, Foxtail, Giant [11, 19]: 50
- Plant response rating, Foxtail, Giant [11, 20]: 70
- Barnyardgrass plant response rating [12, 17]: 50
- Plant response rating, Barnyardgrass [12, 18]: 90
- Plant response rating, Barnyardgrass [12, 19]: 10
- Plant response rating, Barnyardgrass [12, 20]: 90

SMILES: CCCCc1ncc(C(=O)C2=C(O)CCCC2=O)c(=O)n1-c1ccc(C)cc1 [Compound 67]
- Plant response rating, Chickweed [1, 13]: 90
- Chickweed plant response rating (0 to 100 scale) [1, 21]: 95
- Plant response rating, Chickweed [1, 15]: 95
- Plant response rating, Chickweed [1, 16]: 100
- Plant response rating, Canarygrass [2, 13]: 0
- Canarygrass plant response rating (0 to 100 scale) [2, 21]: 0
- Plant response rating, Canarygrass [2, 15]: 0
- Plant response rating, Canarygrass [2, 16]: 5
- Plant response rating, Barley [3, 13]: 0
- Barley plant response rating (0 to 100 scale) [3, 21]: 5
- Plant response rating, Barley [3, 15]: 20
- Plant response rating, Barley [3, 16]: 30
- Plant response rating, Windgrass [4, 13]: 0
- Windgrass plant response rating (0 to 100 scale) [4, 21]: 0
- Plant response rating, Windgrass [4, 15]: 5
- Plant response rating, Windgrass [4, 16]: 5
- Wheat plant response rating [5, 17]: 20
- Plant response rating, Wheat [5, 18]: 30
- Plant response rating, Wheat [5, 19]: 0
- Plant response rating, Wheat [5, 20]: 0
- Crabgrass, Large plant response rating [6, 17]: 60
- Plant response rating, Crabgrass, Large [6, 18]: 90
- Plant response rating, Crabgrass, Large [6, 19]: 30
- Plant response rating, Crabgrass, Large [6, 20]: 90
- Morningglory plant response rating [7, 17]: 100
- Plant response rating, Morningglory [7, 18]: 100
- Plant response rating, Morningglory [7, 19]: 30
- Plant response rating, Morningglory [7, 20]: 50
- Velvetleaf plant response rating [8, 17]: 100
- Plant response rating, Velvetleaf [8, 18]: 100
- Plant response rating, Velvetleaf [8, 19]: 70
- Plant response rating, Velvetleaf [8, 20]: 80
- Plant response rating, Corn [9, 18]: 10
- Plant response rating, Corn [9, 19]: 0
- Plant response rating, Corn [9, 20]: 0
- Pigweed plant response rating [10, 17]: 100
- Plant response rating, Pigweed [10, 18]: 100
- Plant response rating, Pigweed [10, 19]: 90
- Plant response rating, Pigweed [10, 20]: 90
- Foxtail, Giant plant response rating [11, 17]: 30
- Plant response rating, Foxtail, Giant [11, 18]: 60
- Plant response rating, Foxtail, Giant [11, 20]: 50
- Barnyardgrass plant response rating [12, 17]: 70
- Plant response rating, Barnyardgrass [12, 18]: 90
- Plant response rating, Barnyardgrass [12, 19]: 0
- Plant response rating, Barnyardgrass [12, 20]: 40
